Laboratory results taken from patent publication US20090326072A1, “USE OF 2-(2-NITRO-4-TRIFLUOROMETHYLBENZOYL)-l,3- CYCLOHEXANEDIONE IN THE TREATMENT OF PARKINSON'S DISEASE” (priority 2005, published 2009).
“Also recorded” adds a separate entry of the source. Where two headings read alike, the source gives them in different places.

Legend:
[1] = tested on: AMPT rat model of Parkinson's disease; experiment: AMPT rat model of Parkinson's disease (catalepsy descent latency and centre rearing counts); format: in vivo; conditions: for Mean Catalepsy Descent Latency (s) / Mean Centre Rearing Counts: 8 h post AMPT; for reversal of AMPT induced catalepsy (in words) / reversal of AMPT induced deficits in mean centre rearing counts (in words): single oral dose 10 mg/kg, -16 or -1 hours
Experimental: AMPT is a competitive inhibitor of tyrosine hydroxylase. Rats dosed with >150 mg/kg AMPT develop parkinsonian-like behavior and locomotor deficits (e.g. catalepsy and reduced rearing activity) within hours owing to the depletion of striatal dopamine concentration as a consequence of the reduced flux through the dopamine synthetic pathway. […] Indian J. Exp. Biol. 41, 1264-1268).
The effect was compared with appropriate vehicle control groups (oral vehicle was 1% carboxymethylcellulose; CMC) and a group that received a 150 mg/kg i.p. dose of L-dopa.
Eight hours after AMPT (or vehicle) administration rats were assessed for catalepsy and centre rearing activity. During the catalepsy test, the front paws of the rat were placed over a horizontal bar suspended 9 cm off the floor. The time taken for the rat to get off the bar (descent latency) was measured with a maximum time of 3 minutes being allowed. Centre rearing counts were determined over a 1 hour monitoring period using an automated activity monitoring system (AM1053). This system used an array of infrared beams to determine the activity and mobility of each animal. Each cage had 48 infrared beams, 24 on each of two levels arranged in an 8×16, 1″ (25.4 mm) pitch grid. The lower grid measured horizontal x, y movement, whilst the upper grid measured rearing movement. The activity detector operated by counting the number of times the beams changed from unbroken to broken and then incrementing the relevant counters.
These groups were compared to a positive control group (6) dosed with 225 mg/kg AMPT i.p.+150 mg/kg L-dopa i.p. 6.5 hour post AMPT dose. L-dopa was administered with a peripheral dopa decarboxylase inhibitor (benserazide), at 100 mg/kg i.p.
In a second and third series of experiments, the efficacy of eight other HPPD inhibitor test compounds were assessed in the AMPT rat model of Parkinson's disease (Tables 1.5 & 1.6). Male Sprague-Dawley rats (300-350 g) were administered a single i.p. dose of 225 mg/kg AMPT and a single oral dose of 10 mg/kg of the HPPD inhibitor test compound was administered either 1 or 16 hours prior to (−16 or −1 hours) AMPT administration. Behavioral assessment (catalepsy and centre rearing counts) was conducted 8 hours post AMPT administration. The effect was compared with a vehicle control group and a group receiving AMPT alone.

plasma tyrosine = experiment: Plasma tyrosine concentration kinetic profile in the rat following a single oral dose; format: in vivo; conditions: for Plasma tyrosine: single oral dose 2.0 mg/kg; for Plasma Tyrosine Concentration: single oral dose 10 mg/kg
Experimental: The plasma tyrosine concentration kinetic profile in the rat was determined for each of the HPPD inhibitor test compounds by administering a single oral dose to 10-12 week old male Sprague Dawley rats. Compounds 3.20, 3.13 and 3.26 were dosed at 2 mg/kg in 1% carboxymethylcellulose (1% CMC) vehicle, whilst compounds 3.22, 3.12, 3.15, 3.18, 3.23, 3.21, 3.11, 3.01, 3.24 and 3.25 were administered at 10 mg/kg in 1% CMC.
Blood samples to determine plasma tyrosine concentration were obtained at frequent intervals during the first 24 hours post-dose, and at 48 hours post-dose. These samples were either compared with blood samples obtained from control rats which only received an equivalent volume of the vehicle, 1% CMC, or by comparison with control samples obtained from the rats 1 hour prior to dosing with test the compound. Prior to the analysis of the samples for plasma tyrosine concentration, the blood samples were centrifuged at 1800 g for 10 minutes at 4° C. The plasma was collected and then filtered through a centrifugal micro partition device at 1500 g for 30 minutes at 4° C. The filtered plasma was then divided into two aliquots and stored frozen at −70° C. for subsequent gradient reverse phase high performance liquid chromatographic (HPLC) analysis of plasma tyrosine. Aliquots of plasma were analysed by HPLC using a 250×4.6 mm Hichrom S5ODS2 column at 30° C., eluted with a mobile phase of water/acetonitrile/trifluoroacetic acid (950:50:2 v/v/v) at a flow rate of 1 ml/min. Detection was by a diode array detector at 274 nm. Appropriate tyrosine standards were run alongside the samples for calibration purposes.
The plasma tyrosine concentration kinetic profile for the test compounds 3.20, 3.13 and 3.26 are shown at the time points 1, 2, 4, 6, 12, 24 and 48 hours post-dose in Table 1.1. The data shown are the mean±standard deviation (n=4), except for the 6 hour time point where the data were obtained from n=3 rats for the control and 3.26 groups.
The plasma tyrosine concentration kinetic profile for the test compounds 3.22, 3.12, 3.15, 3.18, 3.23, 3.21, 3.11, 3.01, 3.24 and 3.25 are shown at the time points −1 hour (pre-dose control), 1, 3, 6, 12, 24 and 48 hours post-dose, in Tables 1.2 and 1.3. The data shown are the mean±standard deviation (n=3), except for the −1 hour time point with compound 3.23, where n=2 (Table 1.2), and for the 3 and 6 hour time points with compound 3.21, where n=2 (Table 1.3).

[2] = target: T1, 4-hydroxyphenyl pyruvate dioxygenase (HPPD) (Rattus norvegicus, UniProt P32755); experiment: Determination of 4-hydroxyphenyl pyruvate dioxygenase (HPPD) enzyme activity in vitro (rate of oxygen consumption, rat liver cytosol); format: biochemical; conditions: for inhibition at 0.1 µM: read-out: % Inhibition at 100 nM
T1 construct: rat liver cytosol (2.7 mg of protein/ml incubate); from tissue; host or cells: rat liver (cytosol, 110,000 g supernatant)
T1 sequence (P32755 whole entry): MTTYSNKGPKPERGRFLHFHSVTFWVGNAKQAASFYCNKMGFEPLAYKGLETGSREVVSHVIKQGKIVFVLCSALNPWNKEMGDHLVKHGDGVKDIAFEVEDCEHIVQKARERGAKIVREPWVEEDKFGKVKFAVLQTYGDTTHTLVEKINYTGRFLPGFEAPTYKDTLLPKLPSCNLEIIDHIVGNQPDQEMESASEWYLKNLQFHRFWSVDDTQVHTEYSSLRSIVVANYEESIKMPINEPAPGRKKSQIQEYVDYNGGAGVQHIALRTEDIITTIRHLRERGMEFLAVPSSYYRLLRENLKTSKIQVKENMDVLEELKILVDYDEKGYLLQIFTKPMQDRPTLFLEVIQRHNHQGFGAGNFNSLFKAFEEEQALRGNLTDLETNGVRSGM
Experimental: The principle of the assay is that 4-hydroxyphenyl pyruvate dioxygenase (HPPD), an enzyme that participates in the catabolism of tyrosine, catalyses the oxidative decarboxylation and rearrangement of 4-hydroxyphenylpyruvate (HPPA) to homogentisate, with the incorporation of both atoms of molecular oxygen into the product.
Rat liver was homogenised in buffer of the following composition; 0.25 M Sucrose, 5.4 mM EDTA, 20 mM Tris base, pH 7.4, (25% homogenate) using 6 passes of a Potter type homogeniser. The homogenate was then centrifuged at 1,800 g for 10 minutes at 4° C., the pellet was discarded and the supernatant centrifuged at 17,000 g for a further 15 minutes at 4° C. The pellet was then discarded and the supernatant centrifuged at 110,000 g for 80 minutes at 4° C. The supernatant containing the HPPD enzyme from this 110,000 g spin was collected and stored frozen at −70° C. and used in the assays of the test compounds (see below).
Prior to the start of the enzymatic reaction by the addition of HPPA substrate, the enzyme and test compound (inhibitor) were incubated together for 3 minutes.
In cases where the effects of several concentrations of an inhibitor were investigated, an IC50 value (the half-maximal inhibitory concentration of test compound) was determined by plotting the data using a non-linear regression curve-fitting program using a GraphPad Prism™ software package.
Data are expressed as mean values from two experiments except where indicated. Where appropriate the values are expressed as the mean±standard deviation.

[3] = Table 1.6: 225 mg/kg AMPT i.p. + 10 mg/kg oral at -16 hours
[4] = Table 1.5: 225 mg/kg AMPT i.p. + 10 mg/kg oral at -16 hours

Row | SMILES | Mean Catalepsy Descent Latency (s) [1, 3] | Mean Centre Rearing Counts [1, 3] | reversal of AMPT induced catalepsy (in words) ([1]; 10 mg/kg) | inhibition at 0.1 µM [2] | reversal of AMPT induced deficits in mean centre rearing counts (in words) [1] | Plasma Tyrosine Concentration (plasma tyrosine; 1 hour post-dose) | Plasma Tyrosine Concentration (plasma tyrosine; 3 hours post-dose) | Plasma Tyrosine Concentration (plasma tyrosine; 6 hours post-dose) | Plasma Tyrosine Concentration (plasma tyrosine; 12 hours post-dose) | Plasma Tyrosine Concentration (plasma tyrosine; 24 hours post-dose) | Plasma Tyrosine Concentration (plasma tyrosine; 48 hours post-dose) | other results
1 | Cc1c(C(=O)C2C=NN(C)C2=O)ccc(S(C)(=O)=O)c1C1=NOCC1 (centres unmarked) [Compound 3.20] | 8 ± 1.8^+++ s | 409 ± 50^+++ counts | substantially reversed; also recorded: effective in reversing | 57% | – | – | – | – | – | – | – | reversal of AMPT induced deficits in mean centre rearing counts (in words) ([1]; 10 mg/kg): reached statistical significance; also recorded: either partially or completely reversing; Plasma tyrosine (plasma tyrosine; 1 hour post-dose): 169 ± 13.6 nmol/mL; Plasma tyrosine (plasma tyrosine; 2 hours post-dose): 231 ± 30.2 nmol/mL; Plasma tyrosine (plasma tyrosine; 4 hours post-dose): 353 ± 50.9 nmol/mL; Plasma tyrosine (plasma tyrosine; 6 hours post-dose): 479 ± 40.0 nmol/mL; Plasma tyrosine (plasma tyrosine; 12 hours post-dose): 796 ± 44.3 nmol/mL; Plasma tyrosine (plasma tyrosine; 24 hours post-dose): 745 ± 171.8 nmol/mL; Plasma tyrosine (plasma tyrosine; 48 hours post-dose): 96 ± 1.7 nmol/mL
2 | CCn1ncc(C(=O)c2ccc(S(C)(=O)=O)c(OCCOC)c2Cl)c1O [Compound 3.12] | 16 ± 4.2^+++ s | 211 ± 65 counts | substantially reversed; also recorded: effective in reversing | – | either partially or completely reversing | 168 ± 20.1 nmol/mL | 289 ± 35.6 nmol/mL | 451 ± 72.7 nmol/mL | 969 ± 65.2 nmol/mL | 1543 ± 91.1 nmol/mL | 114 ± 8.0 nmol/mL | inhibition at 0.1 µM ([2]; 100 nM test compound, rat liver cytosol, 3 min pre-incubation): 40%
3 | Cc1nc(C(F)(F)F)ccc1C(=O)C1C(=O)C2CCC(C2)C1=O.[K+] (centres unmarked) [Compound 3.24] | – | – | substantially reversed; also recorded: effective in reversing | 5% | either partially or completely reversing | 184 ± 27.8 nmol/mL | 313 ± 49.9 nmol/mL | 548 ± 83.9 nmol/mL | 1008 ± 85.2 nmol/mL | 2110 ± 111.1 nmol/mL | 2571 ± 167.7 nmol/mL | Mean Catalepsy Descent Latency (s) [1, 4]: 15 ± 8.9^+++ s; Mean Centre Rearing Counts [1, 4]: 189 ± 36 counts; inhibition at 0.3 µM ([2]; read-out: % inhibition at 300 nM): 34%
